Data on 25 molecules can be found in patent US12221453B2, “Substituted pyrazolo[5′,1′:2,3]pyrimido[5,4-b][1,4]oxazines as TYK2 inhibitors” (TAKEDA PHARMACEUTICAL COMPANY LIMITED, priority 2018, dated 2025).

This assay deals with IL-12 induced STAT4 phosphorylation mediated by TYK2/JAK2. Nature of the assay: IL-12 induced pSTAT4 in human PBMC. The format is cell-based. The conditions noted are these: 1 hr compound, 1.7 ng/mL IL-12 for 30 minutes. Here is the method:
Human PBMC were isolated from buffy coat and are stored frozen for assays as needed. […] 15 μL of compound or DMSO was added to the well at the desired concentrations and incubated at 1 hr at 37° C. 15 μL of stimulus (final concentration of 1.7 ng/mL IL-12) was added for 30 minutes prior to pSTAT4 and total STAT4 analysis using cell lysates prepared and analyzed by MSD reagents as per manufacturer protocol. The final DMSO concentration of compound in the assay was 0.1%. The IL-12 induced pSTAT4 assay evaluates the inhibition of IL-12 induced STAT4 phosphorlyation mediated by TYK2/JAK2 ([…] complex).

Molecules are shown by their SMILES.

Regarding `CNc1cc(Nc2cccn([C@H]3CCC[C@H]3O)c2=O)nc2c(C(=O)N[C@H]3CC[C@]3(C)OC)cnn12` [Compound I-391], the 50% inhibitory concentration (IC50) is less than 0.1 µM.

In turn, `CNc1cc(Nc2cccn(C3CCOCC3)c2=O)nc2c(C(=O)NC3CC[C@@]3(C)OC)cnn12` (stereo partly shown) [Compound I-405] displayed a concentration for half-maximal inhibition (IC50) of less than 0.1 µM.

For `CNc1cc(Nc2cccn(C3CCOCC3)c2=O)nc2c(C(=O)N[C@H]3CC[C@]3(C)OC)cnn12` [Compound I-407], the concentration for half-maximal inhibition (IC50) is less than 0.1 µM.

`CNc1cc(Nc2cccn([C@H]3[C@@H]4COC[C@@H]43)c2=O)nc2c(C(=O)N[C@@H]3CC[C@@]3(C)OC)cnn12` [Compound I-410] registered an IC50 of less than 0.1 µM. The molecule `CNc1cc(Nc2cccn(-c3ncccc3F)c2=O)nc2c(C(=O)NC3CC[C@@]3(C)OC)cnn12` (stereo partly shown) [Compound I-414] yielded an IC50 of less than 0.1 µM. Consider `CNc1cc(Nc2cccn(-c3ncccc3F)c2=O)nc2c(C(=O)N[C@@H]3CC[C@@]3(C)OC)cnn12` [Compound I-415], for which the 50% inhibitory concentration (IC50) is less than 0.1 µM. To `CNc1cc(Nc2cccn([C@H]3CCCC[C@H]3O)c2=O)nc2c(C(=O)NC3CC[C@]3(C)OC)cnn12` (stereo partly shown) [Compound I-423] belongs less than 0.1 µM. Turning to `CNc1cc(Nc2cccn([C@H]3CCCC[C@H]3O)c2=O)nc2c(C(=O)N[C@H]3CC[C@]3(C)OC)cnn12` [Compound I-424], the IC50 is less than 0.1 µM.

The molecule `CNc1cc(Nc2cccn([C@H]3CC[C@H](OC)CC3)c2=O)nc2c(C(=O)N[C@@H]3CC[C@@]3(C)OC)cnn12` [Compound I-428] returned a concentration for half-maximal inhibition (IC50) of less than 0.1 µM.

As to `CNc1cc(Nc2cccn([C@H]3CC[C@@H](OC)CC3)c2=O)nc2c(C(=O)N[C@@H]3CC[C@@]3(C)OC)cnn12` [Compound I-431], the half-inhibitory concentration (IC50) was less than 0.1 µM. To `CNc1cc(Nc2cccn([C@H]3C[C@H](F)C3)c2=O)nc2c(C(=O)N[C@H]3CC[C@H](O)C3)cnn12` [Compound I-436] belongs less than 0.1 µM; to `CNc1ccc(-c2cc(NC)n3ncc(C(=O)N[C@@H]4C[C@@H]4F)c3n2)n2ccnc12` [Compound I-479], less than 0.1 µM.

In turn, `CNc1ccc(-c2cc(NC)n3ncc(C(=O)N[C@H]4CC[C@@H]4F)c3n2)n2ccnc12` [Compound I-481] gave a half-inhibitory concentration (IC50) of less than 0.1 µM. In turn, `CNc1ccc(-c2cc(NC)n3ncc(C(=O)NC4CC[C@H]4F)c3n2)n2ccnc12` (stereo partly shown) [Compound I-483] returned a 50% inhibitory concentration (IC50) of less than 0.1 µM. `CNc1ccc(-c2cc(NC)n3ncc(C(=O)NC4CC[C@H]4O)c3n2)n2ccnc12` (stereo partly shown) [Compound I-484] gave a half-maximal inhibitory concentration (IC50) of less than 0.1 µM. `CNc1ccc(-c2cc(NC)n3ncc(C(=O)N[C@H]4CC[C@H]4O)c3n2)n2ccnc12` [Compound I-485]: the IC50 was less than 0.1 µM. To `CNc1ccc(-c2cc(NC)n3ncc(C(=O)NC4CC[C@@H]4OC)c3n2)n2ccnc12` (stereo partly shown) [Compound I-488] belongs less than 0.1 µM; to `CNc1ccc(-c2cc(NC)n3ncc(C(=O)N[C@@H]4CC[C@H]4OC)c3n2)n2ccnc12` [Compound I-490], less than 0.1 µM. The figure for `CNc1cc(-c2cn([C@H]3C[C@@H](O)C3)c3ncccc23)nc2c(C(=O)NC3CC3)cnn12` [Compound I-495] is less than 0.1 µM; for `CNc1cc(-c2cn(C3COC3)c3ncccc23)nc2c(C(=O)NC3CC[C@@H]3F)cnn12` (stereo partly shown) [Compound I-507] it is less than 0.1 µM.

`CNc1cc(-c2cn(C3COC3)c3ncccc23)nc2c(C(=O)N[C@H]3CC[C@@H]3F)cnn12` [Compound I-508] returned a half-inhibitory concentration (IC50) of less than 0.1 µM. To `CNc1cc(-c2cn([C@H]3C[C@@H](O)C3)c3ncccc23)nc2c(C(=O)NC3CC[C@@H]3F)cnn12` (stereo partly shown) [Compound I-510] belongs less than 0.1 µM; to `CNc1cc(-c2cn([C@H]3C[C@@H](O)C3)c3ncccc23)nc2c(C(=O)N[C@H]3CC[C@@H]3F)cnn12` [Compound I-511], less than 0.1 µM. `CNc1cc(-c2cn(C3CN(C)C3)c3ncccc23)nc2c(C(=O)NC3CC[C@@H]3F)cnn12` (stereo partly shown) [Compound I-513] came in with an IC50 of less than 0.1 µM. `CNc1cc(-c2cn(C3CN(C)C3)c3ncccc23)nc2c(C(=O)N[C@H]3CC[C@@H]3F)cnn12` [Compound I-514] came in with a concentration for half-maximal inhibition (IC50) of less than 0.1 µM.
